Columns and labels:
johnsongrass = assay: Test C pre-/postemergence herbicide test; format: in vivo, Sorghum halepense
Summary of the method: (§1)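 Pre- and postemergence greenhouse screen. Preemergence treatment went onto freshly planted seeds in loam–sand soil; postemergence treatment went onto plants 2 to 18 cm tall at the 1- to 4-leaf stage in sphagnum peat/vermiculite medium. Scoring at 13 to 15 days used a 0–100 control scale.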

lambsquarters = assay: Test C pre-/postemergence herbicide test; format: in vivo, Chenopodium album
Summary of the method: as §1

giant foxtail = assay: Test A pre-/postemergence herbicide test; format: in vivo, Setaria faberii
Summary of the method: (§2)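 Visual injury ratings, 0 = no effect, 100 = complete control, taken ~10 days after treatment against untreated greenhouse controls. Preemergence: directed soil spray onto seeded loam/sand pots. Postemergence: spray onto plants at one- to two-leaf stage, 2–10 cm tall.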

morningglory = assay: Test C pre-/postemergence herbicide test; format: in vivo, Ipomoea coccinea
Summary of the method: as §1

galium = assay: Test C pre-/postemergence herbicide test; format: in vivo, Galium aparine
Summary of the method: as §1

barnyardgrass = assay: Test C pre-/postemergence herbicide test; format: in vivo, Echinochloa crus-galli
Summary of the method: as §1

foxtail, giant = assay: Test C pre-/postemergence herbicide test; format: in vivo, Setaria faberii
Summary of the method: as §1

pigweed = assay: Test C pre-/postemergence herbicide test; format: in vivo, Amaranthus retroflexus
Summary of the method: as §1

wheat = assay: Test A pre-/postemergence herbicide test; format: in vivo, Triticum aestivum; conditions: Postemergence
Summary of the method: as §2

wheat (winter wheat) = assay: Test C pre-/postemergence herbicide test; format: in vivo, Triticum aestivum
Summary of the method: as §1

[1] = Postemergence, 31 g ai/ha, scale 0 to 100 (0 no effect, 100 complete control)
[2] = Postemergence, 62 g ai/ha, scale 0 (no effect) to 100 (complete control)
[3] = Postemergence, 125 g ai/ha, scale 0 to 100 (0 no effect, 100 complete control)
[4] = Postemergence, 250 g ai/ha, scale 0 to 100 (0 no effect, 100 complete control)
[5] = Preemergence, 31 g ai/ha, scale 0 to 100, 0 is no effect and 100 is complete control
[6] = Preemergence, 62 g ai/ha, scale 0 to 100 (0 no effect, 100 complete control)
[7] = Preemergence, 125 g ai/ha, scale 0 to 100
[8] = Postemergence, 125 g ai/ha, visual rating on 0 to 100 scale (0 no effect, 100 complete control), approx. 10 days
[9] = Postemergence, 500 g ai/ha, 0 to 100 scale (0 no effect, 100 complete control)
[10] = Preemergence, 125 g ai/ha, 0 to 100 scale where 0 is no effect and 100 is complete control
[11] = Preemergence, 500 g ai/ha, visual rating on 0 to 100 scale (0 no effect, 100 complete control)
[12] = Preemergence, 125 g ai/ha, scale 0 to 100 (0 no effect, 100 complete control)
[13] = 125 g ai/ha, visual rating on 0 to 100 scale (0 no effect, 100 complete control), approx. 10 days
[14] = 500 g ai/ha, 0 to 100 scale (0 no effect, 100 complete control)

`O=C1NCC(c2cccc(OC(F)F)c2)C1C(=O)Nc1ccc(F)c(F)c1F` (stereo not drawn) [Compound 325] was tested, and the “Plant response rating, Johnsongrass” value (johnsongrass; [1]) was 0, the “Plant response rating, Johnsongrass” value (johnsongrass; [2]) was 0 and the “Plant response rating, Johnsongrass” value (johnsongrass; [3]) was 0. For the same molecule, the “Plant response rating, Johnsongrass” value (johnsongrass; [4]) was 0, the “Johnsongrass plant response rating” value (johnsongrass; [5]) was 20 and the “Johnsongrass plant response rating” value (johnsongrass; [6]) was 35. For the same molecule, the “Plant response rating, Johnsongrass” value (johnsongrass; [7]) was 75, the “Plant response rating (scale of 0 to 100), Johnsongrass” value (johnsongrass; Preemergence, 250 g ai/ha) was 75 and the “Plant response rating, Lambsquarters” value (lambsquarters; [1]) was 20. For the same molecule, the “Plant response rating, Lambsquarters” value (lambsquarters; [2]) was 45, the “Plant response rating, Lambsquarters” value (lambsquarters; [3]) was 70 and the “Plant response rating, Lambsquarters” value (lambsquarters; [4]) was 65. For the same molecule, the “Lambsquarters plant response rating” value (lambsquarters; [5]) was 45, the “Lambsquarters plant response rating” value (lambsquarters; [6]) was 70 and the “Plant response rating, Lambsquarters” value (lambsquarters; [7]) was 80. The “Plant response rating (scale of 0 to 100), Lambsquarters” value (lambsquarters; Preemergence, 250 g ai/ha) was 80, the “Plant response rating, Foxtail, Giant” value (giant foxtail; [8]) was 90 and the “Plant response rating, Foxtail, Giant” value (giant foxtail; [9]) was 90. For the same molecule, the “Plant response rating, Foxtail, Giant” value (giant foxtail; [10]) was 90, the “Foxtail, Giant plant response rating” value (giant foxtail; [11]) was 90 and the “Plant response rating, Morningglory” value (morningglory; [1]) was 5. The “Plant response rating, Morningglory” value (morningglory; [2]) was 5, the “Plant response rating, Morningglory” value (morningglory; [3]) was 35 and the “Plant response rating, Morningglory” value (morningglory; [4]) was 50. The “Morningglory plant response rating” value (morningglory; [5]) was 0, the “Morningglory plant response rating” value (morningglory; [6]) was 30 and the “Plant response rating, Morningglory” value (morningglory; [7]) was 30. For the same molecule, the “Plant response rating (scale of 0 to 100), Morningglory” value (morningglory; Preemergence, 250 g ai/ha) was 40, the “Galium plant response rating” value (galium; [5]) was 0 and the “Galium plant response rating” value (galium; [6]) was 20. The “Plant response rating, Galium” value (galium; [7]) was 50, the “Plant response rating (scale of 0 to 100), Galium” value (galium; Preemergence, 250 g ai/ha) was 80 and the “Plant response rating, Barnyardgrass” value (barnyardgrass; [1]) was 10. The “Plant response rating, Barnyardgrass” value (barnyardgrass; [2]) was 25, the “Plant response rating, Barnyardgrass” value (barnyardgrass; [3]) was 70 and the “Plant response rating, Barnyardgrass” value (barnyardgrass; [4]) was 80. For the same molecule, the “Barnyardgrass plant response rating” value (barnyardgrass; [5]) was 85, the “Barnyardgrass plant response rating” value (barnyardgrass; [6]) was 90 and the “Plant response rating, Barnyardgrass” value (barnyardgrass; [12]) was 95. The “Plant response rating (scale of 0 to 100; 0 is no effect, 100 is complete control), Barnyardgrass” value (barnyardgrass; Preemergence, 250 g ai/ha) was 95, the “Plant response rating, Foxtail, Giant” value (foxtail, giant; [1]) was 0 and the “Plant response rating, Foxtail, Giant” value (foxtail, giant; [2]) was 35. The “Plant response rating, Foxtail, Giant” value (foxtail, giant; [3]) was 65, the “Plant response rating, Foxtail, Giant” value (foxtail, giant; [4]) was 75 and the “Foxtail, Giant plant response rating” value (foxtail, giant; [5]) was 90. The “Foxtail, Giant plant response rating” value (foxtail, giant; [6]) was 95, the “Plant response rating, Foxtail, Giant” value (foxtail, giant; [7]) was 98 and the “Plant response rating (scale of 0 to 100), Foxtail, Giant” value (foxtail, giant; Preemergence, 250 g ai/ha) was 95. The “Plant response rating, Pigweed” value (pigweed; [1]) was 40, the “Plant response rating, Pigweed” value (pigweed; [2]) was 55 and the “Plant response rating, Pigweed” value (pigweed; [3]) was 50. The “Plant response rating, Pigweed” value (pigweed; [4]) was 65, the “Pigweed plant response rating” value (pigweed; [5]) was 65 and the “Pigweed plant response rating” value (pigweed; [6]) was 65. The “Plant response rating, Pigweed” value (pigweed; [7]) was 75, the “Plant response rating, Wheat” value (wheat; [13]) was 60 and the “Plant response rating, Wheat” value (wheat; [14]) was 80. The “Plant response rating, Wheat” value (wheat (winter wheat); [1]) was 0, the “Plant response rating, Wheat” value (wheat (winter wheat); [2]) was 0 and the “Plant response rating, Wheat” value (wheat (winter wheat); [3]) was 0. For the same molecule, the “Plant response rating, Wheat” value (wheat (winter wheat); [4]) was 5, the “Wheat plant response rating” value (wheat (winter wheat); [6]) was 40 and the “Plant response rating, Wheat” value (wheat (winter wheat); [7]) was 65.
With `O=C1NCC(c2cccc(Br)c2)C1C(=O)Nc1cccc(F)c1F` (stereo not drawn) [Compound 309] the “Plant response rating, Johnsongrass” value (johnsongrass; [1]) was 0, the “Plant response rating, Johnsongrass” value (johnsongrass; [2]) was 0 and the “Plant response rating, Johnsongrass” value (johnsongrass; [3]) was 0. For the same molecule, the “Plant response rating, Johnsongrass” value (johnsongrass; [4]) was 15, the “Johnsongrass plant response rating” value (johnsongrass; [5]) was 10 and the “Johnsongrass plant response rating” value (johnsongrass; [6]) was 10. For the same molecule, the “Plant response rating, Johnsongrass” value (johnsongrass; [7]) was 60, the “Plant response rating (scale of 0 to 100), Johnsongrass” value (johnsongrass; Preemergence, 250 g ai/ha) was 80 and the “Plant response rating, Lambsquarters” value (lambsquarters; [1]) was 10. For the same molecule, the “Plant response rating, Lambsquarters” value (lambsquarters; [2]) was 65, the “Plant response rating, Lambsquarters” value (lambsquarters; [3]) was 65 and the “Plant response rating, Lambsquarters” value (lambsquarters; [4]) was 70. For the same molecule, the “Lambsquarters plant response rating” value (lambsquarters; [5]) was 0, the “Lambsquarters plant response rating” value (lambsquarters; [6]) was 0 and the “Plant response rating, Lambsquarters” value (lambsquarters; [7]) was 30. The “Plant response rating (scale of 0 to 100), Lambsquarters” value (lambsquarters; Preemergence, 250 g ai/ha) was 50, the “Plant response rating, Foxtail, Giant” value (giant foxtail; [8]) was 80 and the “Plant response rating, Foxtail, Giant” value (giant foxtail; [9]) was 90. The “Plant response rating, Foxtail, Giant” value (giant foxtail; [10]) was 90, the “Foxtail, Giant plant response rating” value (giant foxtail; [11]) was 90 and the “Plant response rating, Morningglory” value (morningglory; [1]) was 60. The “Plant response rating, Morningglory” value (morningglory; [2]) was 10, the “Plant response rating, Morningglory” value (morningglory; [3]) was 25 and the “Plant response rating, Morningglory” value (morningglory; [4]) was 10. For the same molecule, the “Morningglory plant response rating” value (morningglory; [5]) was 0, the “Morningglory plant response rating” value (morningglory; [6]) was 0 and the “Plant response rating, Morningglory” value (morningglory; [7]) was 10. For the same molecule, the “Plant response rating (scale of 0 to 100), Morningglory” value (morningglory; Preemergence, 250 g ai/ha) was 10, the “Plant response rating, Galium” value (galium; [1]) was 30 and the “Plant response rating, Galium” value (galium; [2]) was 40. For the same molecule, the “Plant response rating, Galium” value (galium; [3]) was 55, the “Plant response rating, Galium” value (galium; [4]) was 60 and the “Galium plant response rating” value (galium; [5]) was 0. The “Galium plant response rating” value (galium; [6]) was 0, the “Plant response rating, Galium” value (galium; [7]) was 75 and the “Plant response rating (scale of 0 to 100), Galium” value (galium; Preemergence, 250 g ai/ha) was 85. For the same molecule, the “Plant response rating, Barnyardgrass” value (barnyardgrass; [1]) was 0, the “Plant response rating, Barnyardgrass” value (barnyardgrass; [2]) was 15 and the “Plant response rating, Barnyardgrass” value (barnyardgrass; [3]) was 55. The “Plant response rating, Barnyardgrass” value (barnyardgrass; [4]) was 60, the “Barnyardgrass plant response rating” value (barnyardgrass; [5]) was 60 and the “Barnyardgrass plant response rating” value (barnyardgrass; [6]) was 90. For the same molecule, the “Plant response rating, Barnyardgrass” value (barnyardgrass; [12]) was 90, the “Plant response rating (scale of 0 to 100; 0 is no effect, 100 is complete control), Barnyardgrass” value (barnyardgrass; Preemergence, 250 g ai/ha) was 95 and the “Plant response rating, Foxtail, Giant” value (foxtail, giant; [1]) was 10. The “Plant response rating, Foxtail, Giant” value (foxtail, giant; [2]) was 0, the “Plant response rating, Foxtail, Giant” value (foxtail, giant; [3]) was 40 and the “Plant response rating, Foxtail, Giant” value (foxtail, giant; [4]) was 80. The “Foxtail, Giant plant response rating” value (foxtail, giant; [5]) was 90, the “Foxtail, Giant plant response rating” value (foxtail, giant; [6]) was 90 and the “Plant response rating, Foxtail, Giant” value (foxtail, giant; [7]) was 90. For the same molecule, the “Plant response rating (scale of 0 to 100), Foxtail, Giant” value (foxtail, giant; Preemergence, 250 g ai/ha) was 95, the “Plant response rating, Pigweed” value (pigweed; [1]) was 30 and the “Plant response rating, Pigweed” value (pigweed; [2]) was 50. For the same molecule, the “Plant response rating, Pigweed” value (pigweed; [3]) was 50, the “Plant response rating, Pigweed” value (pigweed; [4]) was 60 and the “Pigweed plant response rating” value (pigweed; [5]) was 0. The “Pigweed plant response rating” value (pigweed; [6]) was 0, the “Plant response rating, Pigweed” value (pigweed; [7]) was 0 and the “Plant response rating (scale of 0 to 100), Pigweed” value (pigweed; Preemergence, 250 g ai/ha) was 40. For the same molecule, the “Plant response rating, Wheat” value (wheat; [13]) was 40, the “Plant response rating, Wheat” value (wheat; [14]) was 60 and the “Plant response rating, Wheat” value (wheat (winter wheat); [1]) was 0. The “Plant response rating, Wheat” value (wheat (winter wheat); [2]) was 0, the “Plant response rating, Wheat” value (wheat (winter wheat); [3]) was 0 and the “Plant response rating, Wheat” value (wheat (winter wheat); [4]) was 0. The “Wheat plant response rating” value (wheat (winter wheat); [6]) was 0, the “Plant response rating, Wheat” value (wheat (winter wheat); [7]) was 0 and the “Plant response rating (scale of 0 to 100), Wheat” value (wheat (winter wheat); Preemergence, 250 g ai/ha) was 0.

From patent publication US10294202B2, “Pyrrolidinones as herbicides” (FMC Corporation, priority 2013, dated 2019)
